From patent US6984649B1, “Pyridine derivatives” (Bayer Aktiengesellschaft, priority 2000, dated 2006) come the findings set out here.

One experiment has as its system A549 human lung epithelium cell line. The experiment in a line: RANTES production in response to TNF-α from A549 cells. It is filed as cell-based. As to conditions: A549 cells, 100 ng/ml TNF-α, read-out: Cellular activity grade (A549) (Cellular IC50). The method in brief: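 Cells (4×10^4/well) in D-MEM/10% FCS preincubated 1 h at 37 °C with compound in 1% DMSO, then stimulated with 100 ng/ml TNF-α for 24 h. Supernatant RANTES quantified by Eu-labelled sandwich immunoassay (time-resolved fluorescence, ex 340/em 615 nm) against recombinant human RANTES standard.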
Turning to `Cc1ccc(COc2cccc(O)c2-c2cc(C3CCCNC3)c(C#N)c(N)n2)cc1` (stereo not drawn) [Example 2-35], the IC50 (in general, the midpoint of a concentration-inhibition curve) is under 1 µM. Same read-out and setting: as for `N#Cc1c(C2CCCNC2)cc(-c2c(O)cccc2OCc2ccc(C(F)(F)F)cc2)nc1N` (stereo not drawn) [Example 2-36], the figure is under 1 µM; as for `N#Cc1c(C2CCCNC2)cc(-c2c(O)cccc2OCc2ccccc2F)nc1N` (stereo not drawn) [Example 2-37], under 1 µM. The same measure, in the same setting: as for `COC(=O)c1ccc(COc2cccc(O)c2-c2cc(C3CCCNC3)c(C#N)c(N)n2)cc1` (stereo not drawn) [Example 2-38], the figure is under 1 µM. Still for that read-out and setting: as for `N#Cc1c(C2CCCNC2)cc(-c2c(O)cccc2OCc2ccc(Br)cc2)nc1N` (stereo not drawn) [Example 2-39], the figure is under 1 µM.

Still in this experiment, the particulars now being: Homo sapiens, A549, A549 cells, 100 ng/ml TNF-α, read-out: Cellular activity grade (A549) (Cellular IC50).
Consider `N#Cc1c(C2CCCNC2)cc(-c2c(O)cccc2OCc2ccc(Cl)c(Cl)c2)nc1N` (stereo not drawn) [Example 2-05], for which the half-maximal inhibitory concentration (IC50) lay within 1 to 10 µM. Same read-out and setting: for `Cc1ccccc1COc1cccc(O)c1-c1cc(C2CCCNC2)c(C#N)c(N)n1` (stereo not drawn) [Example 2-06] the value was 1 to 10 µM; for `N#Cc1c(C2CCCNC2)cc(-c2c(O)cccc2OCc2ccccc2-c2ccccc2)nc1N` (stereo not drawn) [Example 2-22], 1 to 10 µM. Same read-out and setting: for `N#Cc1c(C2CCNCC2)cc(-c2c(O)cccc2OCc2ccccc2)nc1N` [Example 2-23] the value was 1 to 10 µM; for `N#Cc1c(C2CCCNC2)cc(-c2c(O)cccc2OCc2ccc(Br)cc2)nc1N` (stereo not drawn) [Example 2-24], under 1 µM; for `N#Cc1c(C2CCCNC2)cc(-c2c(O)cccc2OCc2ccccc2F)nc1N` (stereo not drawn) [Example 2-25], under 1 µM.

Take `N#Cc1c(C2CCCNC2)cc(-c2c(O)cccc2OCc2ccc(F)cc2F)nc1N` (stereo not drawn) [Example 2-26]: the IC50 is under 1 µM.

On to `N#Cc1c(C2CCCNC2)cc(-c2c(O)cccc2OCc2cccc(F)c2)nc1N` (stereo not drawn) [Example 2-27], for which the IC50 was under 1 µM.

As to `N#Cc1c(C2CCCNC2)cc(-c2c(O)cccc2OCc2ccc(F)cc2)nc1N` (stereo not drawn) [Example 2-28], the IC50 is under 1 µM. On the same count and under the same terms, for `N#Cc1c(C2CCCNC2)cc(-c2c(O)cccc2OCc2ccc(F)c(F)c2)nc1N` (stereo not drawn) [Example 2-29] the value was 1 to 10 µM; for `COC(=O)c1ccc(COc2cccc(O)c2-c2cc(C3CCCNC3)c(C#N)c(N)n2)cc1` (stereo not drawn) [Example 2-30], under 1 µM; for `CC(C)(C)c1ccc(COc2cccc(O)c2-c2cc(C3CCCNC3)c(C#N)c(N)n2)cc1` (stereo not drawn) [Example 2-31], under 1 µM. The same measure, in the same setting: as for `N#Cc1c(C2CCCNC2)cc(-c2c(O)cccc2OCc2cccc3ccccc23)nc1N` (stereo not drawn) [Example 2-32], the figure is 1 to 10 µM. Still for that read-out and setting: as for `N#Cc1c(C2CCCNC2)cc(-c2c(O)cccc2OCc2ccc(-c3ccccc3)cc2)nc1N` (stereo not drawn) [Example 2-33], the figure is 1 to 10 µM.

With `N#Cc1c(C2CCCNC2)cc(-c2c(O)cccc2OCc2ccc(Cl)cc2Cl)nc1N` (stereo not drawn) [Example 2-34], the half-maximal inhibitory concentration (IC50) lay within 1 to 10 µM.

`N#Cc1c(CCN)cc(-c2c(O)cccc2OCc2ccccc2)nc1N` [Example 2-40]: the IC50 was under 1 µM.

For the molecule `N#Cc1c(C2CCCNC2)cc(-c2c(O)cccc2OCCc2ccccc2)nc1N` (stereo not drawn) [Example 2-41], the IC50 was under 1 µM. Turning to `N#Cc1c(C2CCCNC2)cc(-c2c(O)cccc2OCc2ccccn2)nc1N` (stereo not drawn) [Example 2-42], the half-inhibitory concentration (IC50) was 1 to 10 µM. On the same count and under the same terms, for `N#Cc1c(C2CCCNC2)cc(-c2c(O)cccc2OCc2cccnc2)nc1N` (stereo not drawn) [Example 2-43] the value was under 1 µM.

As for `N#Cc1c(C2CCCNC2)cc(-c2c(O)cccc2OCc2ccncc2)nc1N` (stereo not drawn) [Example 2-44], the IC50 is under 1 µM. Take `N#Cc1c(C2CCCNC2)cc(-c2c(O)cccc2OCc2ccc3ccccc3n2)nc1N` (stereo not drawn) [Example 2-45]: the IC50 is under 1 µM. As for `N#Cc1c(C2CCCNC2)cc(-c2c(O)cccc2OCCC(c2ccccc2)c2ccccc2)nc1N` (stereo not drawn) [Example 2-46], the IC50 lay within 1 to 10 µM.

On to `N#Cc1c(C2CCCNC2)cc(-c2c(O)cccc2OCc2csc3ccc(Cl)cc23)nc1N` (stereo not drawn) [Example 2-47], for which the IC50 was 1 to 10 µM.

In the case of `N#Cc1c(C2CCCNC2)cc(-c2c(O)cccc2OCc2ncon2)nc1N` (stereo not drawn) [Example 2-48], the 50% inhibitory concentration (IC50) was under 1 µM.

`Cc1cc(COc2cccc(O)c2-c2cc(C3CCCNC3)c(C#N)c(N)n2)no1` (stereo not drawn) [Example 2-49]: the IC50 was under 1 µM.
